We go through one compound from US8993622B2, “Antiviral compounds” (Eirium AB, priority 2010, dated 2015).

In one data set the test system is Ad37 (D). Kind of data set: Quantitative real-time PCR of adenovirus DNA replication in A549 cells (Ad37). Type of data set: cell-based. The conditions noted are these: Human adenovirus sp., read-out: % inhibition of DNA replication (SD). The procedure: Approximately 1×10^5 A549 cells were seeded in 24-well plates (Nunc) on the day before infection. On the day of infection, the cells in one well were counted to establish the amount of virions to be added. The growth medium was removed and compound and virus were added simultaneously to the cells in 700 μl DMEM with 0.75 g/l NaHCO3, 20 mM HEPES, 1×PEST, and 1% FBS. Compounds were added in concentrations ranging from 0.5 μM to 15 μM. The final concentration of DMSO was less than 1% in all samples. One pg of Ad virions was added per cell. The plate was incubated at 37° C. in 5% CO2 and 24 h after infection the cells were harvested, washed once, and resuspended in PBS. […] The design of primers and probes for analysis of various Ad types representing different adenovirus species with quantitative PCR has been described previously (Allard et al. 2001. Rapid typing of human adenoviruses by a general PCR combined with restriction endonuclease analysis. Journal Clinical Microbiology 39:498-505). Briefly, quantitative real-time PCR was carried out using a degenerate primer pair, Kadgen1 (forward)—Kadgen 2 (reverse) (5′-CWT ACA TGC ACA TCK CSG G-3′—SEQ ID NO:1, and 5′-CRC GGG CRA AYT GCA CCA G-3′—SEQ ID NO:2, respectively); DNA technology A/S, Aarhus, Denmark). […] Real-time PCR was performed in an ABI PRISM 7700 Sequence Detector (Applied Biosystems) and analyzed with Sequence Detector v1.7a software.

Data set [1] deals with Ad5 binding to A549 cells. Kind of data set: Binding of 35S-labelled Ad5 virions to A549 cells. Type of data set: cell-based, human adenovirus. The conditions noted are these: 15 μM. The procedure: A549 cells were washed twice and detached from the culture flask with 0.05% EDTA in PBS, resuspended in culture medium, and allowed to recover for 1 h at 37° C. The cell suspension was centrifuged at room temperature at 450 g for 5 min and resuspended in PBS containing 1% FBS and 0.01% NaN3 (PBS-FBS-NaN3); 200,000 cells per well were dispensed in a 96-well microtiter plate (Nunc). The plate was placed on ice and the compound was added to final concentrations of 5 μM and 15 μM. The final concentration of DMSO was less than 1% in all samples. Five pg […] Ad5 virions (with labeling done as described previously by Segerman et al. 2003 (Journal of Virology 77:1157-1162)) were added per cell and the plate was incubated on ice on a rocking platform for 1 h. Following incubation the cells were washed three times with PBS-FBS-NaN3, pelleted by centrifugation at 800 g for 5 min at 4° C. and resuspended in 100 μl PBS. The suspension was transferred to scintillation tubes containing 2 ml scintillation liquid (Wallac OptiPhase HiSafe 3, PerkinElmer) and cell-associated radioactivity was measured as counts per minute (cpm) using a liquid scintillation counter (Wallac 1409).

The subject of the next data set is Ad11p hexon protein. Nature of the data set: FACS analysis of Ad11p hexon protein expression in A549 cells. The conditions noted are these: 24 h. Type of data set: cell-based, human adenovirus. The protocol:
FIG. 4. A. Binding of ^35S-labelled Ad5 to A549 cells in the presence of A02. Error bars represent the standard deviation of the means from three independent duplicate experiments. B. Flowcytometry assay detecting Ad5 (grey bars) and Ad11 (checkered bars) hexon protein following 24 h incubation with virus and compound A02. Error bars represent the standard deviation of the means from two independent duplicate experiments.
A binding assay using isotope-labeled virions was used to address whether the compound would prevent viral adhesion to host cells. At 15 μM, compound A02 has no effect on Ad5 binding to the surface of A549 cells (FIG. 4A). To further verify inhibition of viral replication, the effect on the expression of the most abundant viral structural protein (hexon) in A549 cells was studied by FACS analysis.
For orientation: A flow cytometer gives signals particle by particle.

Data set [2] is described as follows: Toxicity in the A549 cell system (XTT assay). Type of data set: cell-based. The conditions noted are these: human, A549 cells, read-out: 50% cytotoxic concentration (CC50). The procedure:
FIG. 3. Titration of the effect of A02 on Ad5, Ad11p and the toxic effect in A549 cells following 24 h incubation with virus and/or compound A02. […] IC50 is the concentration at which the Ad replication is inhibited by 50% as determined by qPCR and CC50 is the concentration at which the cytotoxicity is 50%, i.e. 50% of the cells are viable, as determined by the XTT assay. Error bars represent the standard deviation of the means from three independent duplicate experiments.
For orientation: Tetrazolium assays rely on reduction of a dye to a coloured formazan, in cell work by metabolically active cells.

What is called inhibition is the relative decrease from the control value, in per cent.

`O=C(Nc1ccccc1C(=O)Nc1ccccc1C(=O)O)c1ccccc1` [Compound A02, 2-[[2-(Benzoylamino)benzoyl]amino]-benzoic acid]: in the data set on Ad37 (D) (5 μM), the inhibition at 5 µM amounted to 86%. Further, the inhibition at 15 µM in the data set on Ad37 (D) (15 μM) was 94%. The “effect on Ad5 binding to the surface of A549 cells” value in data set [1] was “no effect”. For the same compound, the “expression of Ad11p hexon protein” value in the data set with Ad11p hexon protein was “inhibited by compound A02 in a dose-dependent manner”. In addition, the CC50 at 24 h in data set [2] is 199 µM.
